Test results published in paper PMC10180211, “Stability Analysis of the Asiatic Acid-COX-2 Complex Using 100 ns Molecular Dynamic Simulations and Its Selectivity against COX-2 as a Potential Anti-Inflammatory Candidate” (Molecules, 2023).

Molecular target: T1, cyclooxygenase-2 (COX-2) (Ovis aries, UniProt P79208)
T1 construct: gene PTGS2
T1 sequence (P79208 17-603): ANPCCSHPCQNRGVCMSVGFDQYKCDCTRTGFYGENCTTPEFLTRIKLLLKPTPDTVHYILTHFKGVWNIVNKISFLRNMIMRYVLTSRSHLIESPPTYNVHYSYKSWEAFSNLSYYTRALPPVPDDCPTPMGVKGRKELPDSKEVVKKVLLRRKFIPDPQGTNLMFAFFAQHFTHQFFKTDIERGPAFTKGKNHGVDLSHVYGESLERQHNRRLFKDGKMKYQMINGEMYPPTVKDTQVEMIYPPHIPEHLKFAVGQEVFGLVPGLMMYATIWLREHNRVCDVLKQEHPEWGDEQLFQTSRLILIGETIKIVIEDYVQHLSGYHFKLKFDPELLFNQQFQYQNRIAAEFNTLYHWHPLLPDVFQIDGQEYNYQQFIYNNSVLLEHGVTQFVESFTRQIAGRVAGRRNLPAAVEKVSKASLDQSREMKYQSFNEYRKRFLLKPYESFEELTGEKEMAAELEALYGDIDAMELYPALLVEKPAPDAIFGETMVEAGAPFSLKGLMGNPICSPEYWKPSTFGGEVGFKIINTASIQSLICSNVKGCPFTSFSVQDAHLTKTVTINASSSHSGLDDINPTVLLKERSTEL
Experiment: colorimetric COX inhibitor screening assay (kit […]; TMPD oxidation at […] nm) with ovine COX-2
Type: biochemical

SMILES: C[C@H]1[C@H](C)CC[C@]2(C(=O)O)CC[C@]3(C)C(=CC[C@@H]4[C@@]5(C)C[C@@H](O)[C@H](O)[C@@](C)(CO)[C@@H]5CC[C@]43C)[C@H]12 [asiatic acid, 2,3,23-trihydroxy-urs-12-ene-28-oic-acid]
- IC50: 120 µM
